What all share (type): cell-based, human
Experiment [1] deals with IL-6. Nature of the experiment: CC-93269-induced IL-6 secretion, co-culture of PBMCs and K562-BCMA cells (MSD). As to conditions: 24 hours; for secretion of IL-6 associated with CC-93269 activity, PBMCs + K562-BCMA: pre-treatment 1000 nM lenalidomide, 100 nM pomalidomide, 10 nM iberdomide or 1 nM Compound 1, T-cells to target cells 5:1. Here is the method:
(§1) Fresh PBMCs were isolated from healthy volunteers, the percentage of CD3+ T-cells (total) was quantified by flow cytometry, and the PBMCs were treated with 1 nM Compound 1 (CC-92480) or control DMSO overnight. The next morning, target cells (K562-BCMA, which overexpress surface BCMA at a very high level) or control cells (K562-MCB, no BCMA expression) were added to the wells at a ratio of 5:1, T-cells to target cells, followed by addition of CC-93269 at the indicated concentrations. At 6-, 24- and 48-hours post-incubation, the cell culture media was collected and levels of IL-6 in the supernatant were assessed using an MSD assay.
The circles indicate independent donors and the bars indicate median values; not all donors are shown because a data cut-off for the bottom ~10% of IL-6 concentrations, below 200 pg/ml, was used to eliminate small changes that could skew the result and to increase confidence in results.
as §1, with “the indicated concentrations of IMiD/CELMoD agents” for “1 nM Compound 1 (CC-92480)”, “level)” for “level) or control cells (K562-MCB, no BCMA expression)”, “24 hours” for “6-, 24- and 48-hours”
Fresh PBMCs were isolated from the blood (buffy coat) of healthy human volunteers by Ficoll based cell separation. The percentage of CD3+ T-cells (total) in the PBMCs was quantified by flow cytometry. The isolated PBMCs were seeded in 12-well plates at a concentration of 1.5×10^6 cells/ml and treated with 1 nM Compound 1 (CC-92480), 1000 nM lenalidomide, 100 nM pomalidomide, 10 nM iberdomide, or control DMSO overnight (~17 hours).
After overnight incubation, target K562-BCMA cells (overexpress surface BCMA at a very high level) or control K562-MCB cells (no BCMA expression) were added to the wells at a ratio of 5:1, T-cells to target cells. K562-BCMA and K562-MCB are an isogenic pair that are derived from a chronic myelogenous leukemia (CML,) cell line. CC-93269 was added to the co-culture at various concentrations and incubated. CC-93269 is an anti-BCMA anti-CD3 bispecific T cell-engaging antibody and is also referred to herein as 42-TCBcv.
At 6, 24 and 48 hours post-incubation, the cell culture media was collected from all samples, spun down at 300 g for 5 minutes to remove cells and the supernatant was subjected to cytokine analysis to quantify secreted levels of IL-6 using an MSD assay.

The next experiment relates to TNF-alpha. Nature of the experiment: LPS-induced TNF-alpha secretion from PBMCs, overnight pre-treatment (MSD). To be noted: overnight 1000 nM lenalidomide, 100 nM pomalidomide, 10 nM iberdomide or 1 nM Compound 1; LPS 24 hours. Here is the method: (§2) Fresh PBMCs isolated from healthy volunteers were seeded at a concentration of 1×10^6 cells/ml and treated with the indicated concentration of IMiD drugs/CELMoD agents or DMSO overnight before stimulation with the indicated concentration of LPS. After 24 hours, the cell culture media was collected and IL-6, TNF-alpha and IL1-beta levels in the supernatant were assessed using an MSD assay. ULOQ = Upper limit of quantification.
(§3) Fresh peripheral blood mononuclear cells (PBMCs) were isolated from the blood (buffy coat) of healthy human volunteers by Ficoll based cell separation. The isolated PBMCs were seeded at a concentration of 1×10^6 cells/ml and treated with 1000 nM lenalidomide, 100 nM pomalidomide, 10 nM iberdomide, 1 nM Compound 1 (CC-92480) or control DMSO, overnight (~17 hours). The next morning, the PBMCs were stimulated with various concentrations of LPS (Lipopolysaccharides from Escherichia coli O111:B4).
(§4) After 24 hours, the cell culture media was collected from the control and stimulated cells, spun down at 300 g for 5 minutes to remove cells and the supernatant was subjected to cytokine analysis to quantify secreted levels of IL-6, TNF-alpha (TNF-α) and IL1-beta (IL-1β) using an MSD assay (see e.g. FIGS. 8A-C).

Experiment [2] deals with IL-6. The experiment in a line: LPS-induced IL-6 secretion from PBMCs, overnight pre-treatment (MSD). As to conditions: overnight 1000 nM lenalidomide, 100 nM pomalidomide, 10 nM iberdomide or 1 nM Compound 1; LPS 24 hours. The protocol:
as §2, §3, §4

In a further experiment the test system is TNF-α. The experiment in a line: LPS-stimulated PBMC cytokine production, multiplex cytokine analysis: TNF-α. To be noted: Homo sapiens, PBMC, PBMC 2×10^6 cells/ml, compound 1 hour, then 1 ng/ml LPS 18 hours. Here is the method:
(§5) Peripheral blood mononuclear cells (PBMCs) were isolated from the blood of healthy human donors by Ficoll cell separation. The PBMCs were seeded at a concentration of 2×10^6 cells/ml and treated for 1 hour at 37° C. with various concentrations of IMiD compounds or control DMSO (0.25%), before stimulation with 1 ng/ml LPS for 18 hours at 37° C.
(§6) Supernatant samples were subjected to multiplex cytokine analysis (Luminex IS100 instrument) to quantify secreted levels of IL-6, IL-8, IL1-beta (IL-1β), GM-CSF, MDC, MIP-1alpha (MIP-1α), MIP-1beta (MIP-1β) and TNF-alpha (TNF-α) (see e.g. FIGS. 7A-C).
(§7) IC50 (half maximal inhibitory concentration) values were calculated to measure the potency of each IMiD compound in inhibiting LPS-stimulated secretion of each cytokine (see Table 25).

The subject of another experiment is MIP-1α. Nature of the experiment: LPS-stimulated PBMC cytokine production, multiplex cytokine analysis: MIP-1α. As to conditions: Homo sapiens, PBMC, PBMC 2×10^6 cells/ml, compound 1 hour, then 1 ng/ml LPS 18 hours. Here is the method:
as §5, §6, §7

The test system of a further experiment is IL-8. The experiment in a line: LPS-stimulated PBMC cytokine production, multiplex cytokine analysis: IL-8. To be noted: Homo sapiens; PBMC 2×10^6 cells/ml, compound 1 hour, then 1 ng/ml LPS 18 hours. Here is the method:
as §5, §6, §7

The structures appear in SMILES notation. Entries after “also recorded” stand apart in the source; their conditions may differ. A value given as a limit tells only on which side of the number the result lay.

These results are taken from patent US20230172923A1, “METHODS OF TREATING CYTOKINE-RELATED ADVERSE EVENTS” (BRISTOL-MYERS SQUIBB COMPANY, priority 2020, published 2023).

By IC50 is commonly meant the midpoint of a concentration-inhibition curve. Low values mean greater potency, high ones weaker potency.

As to `N#Cc1ccc(N2CCN(Cc3ccc(COc4cccc5c4CN(C4CCC(=O)NC4=O)C5=O)cc3)CC2)c(F)c1` (stereo not drawn) [Compound 1, 4-(4-(4-(((2-(2,6-dioxopiperidin-3-yl)-1-oxoisoindolin-4-yl)oxy)methyl)benzyl)piperazin-l-yl)-3-fluorobenzonitrile], the “median reduction in IL-6 levels relative to DMSO control” value with IL-6 [1] (1 nM Compound 1 pre-treatment, 10 ng/ml CC-93269, PBMCs from 15 healthy donors) is on record as “about two-fold”. In addition, the “IL-6 secretion at CC-93269 concentrations up to 10,000 ng/mL, PBMCs + K562-BCMA” value with IL-6 [1] (Compound 1 pre-treatment) is “suppresses”. The “secretion of IL-6 associated with CC-93269 activity, PBMCs + K562-BCMA” value (shortened to “secretion of IL-6 associated”) in the experiment on IL-6 [1] is listed as “diminished/attenuated; also recorded: suppressed”. For the same molecule, the “LPS-induced secretion of TNF-α from PBMCs” value with TNF-alpha was “reduces”. The “LPS-induced secretion of IL-6 from PBMCs” value in the experiment on IL-6 [2] was “reduces”.
For `O=C1CC[C@H](N2Cc3c(OCc4ccc(CN5CCOCC5)cc4)cccc3C2=O)C(=O)N1` [Iberdomide, (S)-3-(4-((4-(morpholinomethyl)benzyl)oxy)-1-oxoisoindolin-2-yl)piperidine-2,6-dione], the IC50 is 0.00059 µM in the experiment on TNF-α, 0.028 µM with MIP-1α and more than 10 µM with IL-8. In addition, in the experiment with IL-6 [1], the “secretion of IL-6 associated” value was “diminished/attenuated; also recorded: suppressed”. Also, in the experiment on TNF-alpha, the “LPS-induced secretion of TNF-α from PBMCs” value is recorded as “reduces”. In the experiment on IL-6 [2], the “LPS-induced secretion of IL-6 from PBMCs” value is on record as “reduces”.
`Nc1cccc2c1CN(C1CCC(=O)NC1=O)C2=O` (centres unmarked) [Lenalidomide, 3-(4-amino-1-oxo-2,3-dihydro-1H-isoindol-2-yl) piperidine-2,6-dione]: the half-maximal inhibitory concentration (IC50) is 0.22 µM in the experiment on TNF-α, more than 10 µM in the experiment with MIP-1α and more than 10 µM in the experiment on IL-8. Besides, the “secretion of IL-6 associated” value in the experiment with IL-6 [1] was “diminished/attenuated; also recorded: suppressed”. Besides, the “LPS-induced secretion of TNF-α from PBMCs” value in the experiment with TNF-alpha is given as “reduces”. For the same molecule, the “LPS-induced secretion of IL-6 from PBMCs” value in the experiment with IL-6 [2] is on record as “reduces”.
As for `Nc1cccc2c1C(=O)N(C1CCC(=O)NC1=O)C2=O` (centres unmarked) [Pomalidomide, 4-amino-2-(2,6-dioxopiperidine-3-yl)isoindoline-1,3-dione], the IC50 was 0.033 µM in the experiment with TNF-α, 0.23 µM in the experiment on MIP-1α and 2.9 µM in the experiment with IL-8. Besides, in the experiment with IL-6 [1], the “secretion of IL-6 associated” value is “diminished/attenuated; also recorded: suppressed”. Moreover, in the experiment with TNF-alpha, the “LPS-induced secretion of TNF-α from PBMCs” value is listed as “reduces”. Besides, the “LPS-induced secretion of IL-6 from PBMCs” value in the experiment with IL-6 [2] was “reduces”.
